Read-outs that look alike come from different tables or passages of the source.
Tests used:
[1] = cells; settings: Homo sapiens, DLD-1, 240 h
[2] = biological target: T1, helicase domain of the Pol θ protein (Homo sapiens, UniProt O75417); assay: Biochemical Activity Assay (ADP Glo Assay) of Pol θ inhibitor, ATPase activity
T1 construct: The helicase domain of the Pol θ protein was purified from insect protein expression system; made in house; host or cells: insect protein expression system

[3] = read-out: Cell viability assay IC50 (nM), CTG assay, CellTiter Glo, read on Day 10, cell line not given
[4] = read-out: Cell viability assay IC50 (nM), CTG on Day 10, cell line not given (method: DLD1 and DLD1^-/- cells)
[5] = ADP-Glo assay, ATPase activity of Pol θ helicase domain, ssDNA substrate, read-out: Biochemical assay IC50
[6] = ADP-Glo, ssDNA substrate, 60 min at room temperature, read-out: Biochemical assay IC50
[7] = read-out: Cell viability assay IC50 (nM)

T1 sequence (O75417 102-554 limits assumed): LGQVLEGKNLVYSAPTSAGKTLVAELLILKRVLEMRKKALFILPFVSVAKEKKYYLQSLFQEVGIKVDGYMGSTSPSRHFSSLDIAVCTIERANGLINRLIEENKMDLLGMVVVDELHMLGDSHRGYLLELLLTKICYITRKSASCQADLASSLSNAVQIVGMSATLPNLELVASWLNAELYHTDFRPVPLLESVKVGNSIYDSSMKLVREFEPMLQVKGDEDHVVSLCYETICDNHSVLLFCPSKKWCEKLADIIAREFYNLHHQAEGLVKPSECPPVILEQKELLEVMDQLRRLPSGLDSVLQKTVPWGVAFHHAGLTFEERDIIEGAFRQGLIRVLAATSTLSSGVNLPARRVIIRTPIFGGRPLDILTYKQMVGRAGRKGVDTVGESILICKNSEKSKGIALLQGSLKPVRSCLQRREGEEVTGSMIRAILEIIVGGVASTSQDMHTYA

SMILES	IC50 [2, 5] [nM]	IC50 [2, 6] [nM]	IC50 [1, 3] [nM]	IC50 [1, 4] [nM]	IC50 [1, 7] [nM]	IC50 ([2]; Biochemical assay IC50 (nM)) [nM]	IC50 ([2]; read-out: Biochemical assay IC50) [nM]
COc1cnc(Cl)cc1-c1cnccc1C(=O)Nc1nc2ccc([C@H]3CC[C@H](O)CC3)nc2s1 [Example 34]	48.9	< 50	2000	> 1000	–	–	–
COc1cnc(Cl)cc1-c1cncnc1C(=O)Nc1nc2ccc(C3=CCC(O)CC3)nc2s1 (stereo not shown) [Example 6]	193	50 to 200	794	500 to 1000	–	–	–
[2H]C([2H])([2H])c1cc(-c2cc(Cl)ncc2OC)c(C(=O)Nc2nc3cnc(C4=CCC(O)CC4)cc3s2)cn1 (stereo not shown) [Example 110, 2'-chloro-N-(6-(4-hydroxycyclohex-1-en-1-yl)thiazolo[4,5-c]pyridin-2-yl)-5'-methoxy-6-(methyl-d3)-[4,4'-bipyridine]-3-carboxamide]	2.61	< 50	2.41	< 100	–	–	–
COc1cnc(Cl)cc1-c1cc(C)ncc1C(=O)Nc1nc2cnc(-c3c(C)nn(C)c3C#N)cc2s1 [Example 150]	5.58	–	21.5	–	–	–	–
COc1cnc(Cl)cc1-c1cc(C)ncc1C(=O)Nc1nc2cnc(-c3ncco3)cc2s1 [Example 205, 2'-chloro-5'-methoxy-6-methyl-N-(6-(oxazol-2-yl)thiazolo[4,5-c]pyridin-2-yl)-[4,4'-bipyridine]-3-carboxamide]	5.24	–	20	–	–	–	–
COc1cnc(Cl)cc1-c1cc(C)ncc1C(=O)Nc1nc2cnc(-c3c(C)nn4ccccc34)cc2s1 [Example 158]	6.31	–	4.64	–	–	–	–
COc1cnc(Cl)cc1-c1cc(C(F)(F)F)ncc1C(=O)Nc1nc2ccc(N3CCC(O)CC3)nc2s1 [Example 122]	145	–	2710	–	–	–	–
COc1cnc(Cl)cc1-c1cc(C)ncc1C(=O)Nc1nc2ccc(-c3ccncc3Cl)nc2s1 [Example 82]	6.71	< 50	104	100 to 500	–	–	–
COc1cnc(Cl)cc1-c1cc(C)ncc1C(=O)Nc1nc2ncc(-c3ccc(P(C)(C)=O)cc3)cc2s1 [Example 75, 2'-chloro-N-(6-(4-(dimethylphosphoryl)phenyl)thiazolo[4,5-b]pyridin-2-yl)-5'-methoxy-6-methyl-[4,4'-bipyridine]-3-carboxamide]	2.51	< 50	681	500 to 1000	–	–	–
COc1cnc(Cl)cc1-c1cc(C)ncc1C(=O)Nc1nc2c(s1)CN(Cc1ccncc1)CC2 [Example 192, 2'-chloro-5'-methoxy-6-methyl-N-(5-(pyridin-4-ylmethyl)-4,5,6,7-tetrahydrothiazolo[5,4-c]pyridin-2-yl)-[4,4'-bipyridine]-3-carboxamide]	103	–	4820	–	–	–	–
[2H]C([2H])([2H])Oc1cnc(Cl)cc1-c1cc(C)ncc1C(=O)Nc1nc2cnc(-c3c(C)cnn3C)cc2s1 [Example 156]	2.75	–	5.62	–	–	–	–
COc1cnc(Cl)cc1-c1cc(C)ncc1C(=O)Nc1nc2ccc(N3CCc4ccccc43)nc2s1 [Example 131]	149	–	736	–	–	–	–
COc1cnc(Cl)cc1-c1cc(C)ncc1C(=O)Nc1nc2c(C(N)=O)cc(-c3c(C)cnn3C)cc2s1 [Example 165]	16.9	–	446	–	–	–	–
COc1cnc(Cl)cc1-c1cc(C)ncc1C(=O)Nc1nc2ccc(N3CCC(O)C(C)(C)C3)nc2s1 (stereo not shown) [Example 116, 2'-chloro-N-(5-(4-hydroxy-3,3-dimethylpiperidin-1-yl)thiazol[5,4-b]pyridin-2-yl)-5'-me thoxy-6-methyl-[4,4'-bipyridine]-3-carboxamide]	–	–	–	–	36.9	10.3	–
COc1cnc(Cl)cc1-c1c(C(=O)Nc2nc3ccc(N4CCC(O)CC4)nc3s2)cnc(C)c1F [Example 124]	163	–	584	–	–	–	–
COc1cnc(Cl)cc1-c1cc(C)ncc1C(=O)Nc1nc2cnc(-c3c(C)cnn3C(C)C)cc2s1 [Example 212]	3.48	–	2.23	–	–	–	–
COc1cnc(C(F)F)cc1-c1cc(C)ncc1C(=O)Nc1nc2cnc(N3CC4(CC(O)C4)C3)nc2s1 [Example 199]	7.82	–	31.6	–	–	–	–
CCP(=O)(CC)c1ccc(-c2ccc3nc(NC(=O)c4cnc(C)cc4-c4cc(Cl)ncc4OC)sc3c2)cc1 [Example 187]	–	–	–	–	271	8.75	–
COc1cnc(Cl)cc1-c1cc(C)ncc1C(=O)Nc1nc2cnc(-c3c(C)nnn3C3CC3)cc2s1 [Example 214]	–	–	–	–	27	–	6.71
COc1cnc(Cl)cc1-c1cc(C)ncc1C(=O)Nc1nc2ccc(N3CCc4ccccc4C3)nc2s1 [Example 132]	163	–	158	–	–	–	–
COc1cnc(Cl)cc1-c1cc(C)ncc1C(=O)Nc1nc2cnc(-c3nnnn3C)cc2s1 [Example 208]	36.3	–	141	–	–	–	–
COc1cnc(Cl)c(F)c1-c1cc(C)ncc1C(=O)Nc1nc2ccc(C3CCC(O)CC3)cc2s1 (stereo not shown) [Example 30]	1.62	< 50	19.2	< 100	–	–	–
COc1cnc(Cl)cc1-c1cc(C)ncc1C(=O)Nc1nc2ccc(N3CCn4cncc4C3)nc2s1 [Example 137]	25.1	–	171	–	–	–	–
COc1cnc(Cl)cc1-c1cc(C)ncc1C(=O)Nc1nc2ccc(-c3ccn(C)n3)nc2s1 [Example 24]	15.2	< 50	192	100 to 500	–	–	–
COc1cnc(Cl)cc1-c1cc(C)ncc1C(=O)Nc1nc2ccc(N3CCC=CC3=O)nc2s1 [Example 138]	7.58	–	26.1	–	–	–	–

Now from value to compound, other results behind:

IC50 [2, 5] [nM]	IC50 [2, 6] [nM]	SMILES	IC50 [1, 3] [nM]	IC50 [1, 4] [nM]	IC50 [1, 7] [nM]	IC50 ([2]; Biochemical assay IC50 (nM)) [nM]	IC50 ([2]; read-out: Biochemical assay IC50) [nM]
36.7	–	COc1cnc(Cl)cc1-c1cc(C)ncc1C(=O)Nc1nc2ncc(CN3CCC(O)CC3)cc2s1 [Example 144]	2220	–	–	–	–
5.58	< 50	COc1cnc(Cl)cc1-c1cc(C)ncc1C(=O)Nc1nc2ncc(C(=O)N3CCC(O)CC3)cc2s1 [Example 96, 2'-chloro-N-(6-(4-hydroxypiperidin-1-carbonyl)thiazolo[4,5-b]pyridin-2-yl)-5'-methoxy-6-methyl-[4,4'-bipyridine]-3-carboxamide]	7640	> 1000	–	–	–
2.51	< 50	COc1cnc(Cl)cc1-c1cc(C)ncc1C(=O)Nc1nc2ncc(-c3ccc(N4CCNCC4)cc3)cc2s1 [Example 81]	30.4	< 100	–	–	–
3.52	–	COc1cnc(Cl)c(F)c1-c1cc(C)ncc1C(=O)Nc1nc2ncc(N3CCC(O)CC3)cc2s1 [Example 127]	15.8	–	–	–	–
10.5	< 50	COc1cnc(Cl)cc1-c1cc(C)ncc1C(=O)Nc1nc2ncc(N3CC4CC(O)CC4C3)cc2s1 (stereo not shown) [Example 61]	141	100 to 500	–	–	–
8.06	< 50	COc1cnc(Cl)cc1-c1cc(C)ncc1C(=O)Nc1nc2ccc(N3CCC(O)CC3)cc2s1 [Example 102]	178	< 100	–	–	–
4.46	< 50	COc1cnc(Cl)cc1-c1cc(C)ncc1C(=O)Nc1nc2ncc(N3CCCC(O)C3)cc2s1 (stereo not shown) [Example 71]	142	100 to 500	–	–	–
9.69	–	COc1cnc(Cl)cc1-c1cc(C)ncc1C(=O)Nc1nc2ccc(N3CCC(CO)CC3)nc2s1 [Example 128]	39.8	–	–	–	–
5.93	–	COc1cnc(Cl)cc1-c1cc(C)ncc1C(=O)Nc1nc2c(C#N)cc(N3CCC(O)CC3)cc2s1 [Example 120]	14.2	–	–	–	–
1.93	–	COc1cnc(Cl)cc1-c1cc(C)ncc1C(=O)Nc1nc2cnc(-c3nnn(C)n3)cc2s1 [Example 209]	6.82	–	–	–	–
4.28	< 50	COc1cnc(Cl)cc1-c1cc(C)ncc1C(=O)Nc1nc2ncc(NC3CCN(S(C)(=O)=O)CC3)cc2s1 [Example 69]	92.6	< 100	–	–	–
12.9	< 50	COc1cnc(Cl)cc1-c1cc(C)ncc1C(=O)Nc1nc2ccc([C@H]3CC[C@H](O)CC3)nc2s1 [Example 29]	131	100 to 500	–	–	–
8.23	–	COc1cnc(Cl)cc1-c1cc(C)ncc1C(=O)Nc1nc2cnc(N3CC[C@@H](O)C[C@H]3C)nc2s1 [Example 141]	21.5	–	–	–	–
10.5	–	COc1cnc(Cl)cc1-c1cc(C)ncc1C(=O)Nc1nc2c(F)nc(N3CCC(O)CC3)cc2s1 [Example 123]	24.2	–	–	–	–
2.89	< 50	COc1cnc(Cl)cc1-c1cc(C)ncc1C(=O)Nc1nc2ncc(C3=CCC4(CC3)COC4)cc2s1 [Example 78]	8.21	< 100	–	–	–
16.9	< 50	COc1cnc(Cl)cc1-c1cc(C)ncc1C(=O)Nc1nc2ncc(N3CC4CC3CC4O)cc2s1 (stereo not shown) [Example 62]	631	100 to 500	–	–	–
2.51	< 50	COc1cnc(Cl)cc1-c1cc(C)ncc1C(=O)Nc1nc2ncc(C3=CCC(O)CC3)cc2s1 (stereo not shown) [Example 3]	13.6	< 100	–	–	–
2.95	< 50	COc1cnc(Cl)cc1-c1cc(C)ncc1C(=O)Nc1nc2ncc(N3CC[C@H](O)[C@H](F)C3)cc2s1 [Example 100]	207	100 to 500	–	–	–
11	< 50	COc1cnc(Cl)cc1-c1cc(C)ncc1C(=O)Nc1nc2ncc(N3CCC(N)CC3)cc2s1 [Example 58]	3420	> 1000	–	–	–
26.4	< 50	COc1cnc(Cl)cc1-c1cc(C)ncc1C(=O)Nc1nc2ccc(N3CCC(C)(O)CC3)cc2s1 [Example 48]	165	100 to 500	–	–	–
